Tests used:
[1] = biological target: T1, Mitogen-activated protein kinase 8 (Homo sapiens, UniProt P45983); assay: Inhibition of JNK1 by TR-FRET assay
Liver microsomes = assay: Half life in rat liver microsomes by LC/MS analysis; format: ADME, Microsome
Plasma = assay: Metabolic stability in rat plasma after 60 mins by LC/MS analysis; format: ADME, cell-free; settings: 1 h
[2] = biological target: T1, Mitogen-activated protein kinase 8; assay: Displacement of biotin-labeled JIP1 peptide from JNK1 by DELFIA assay
[3] = biological target: T2, Mitogen-activated protein kinase 9 (Homo sapiens, UniProt P45984); assay: Inhibition of JNK2 at 25 uM by TR-FRET assay
Target sequence in this assay (P45984 whole entry, looked up): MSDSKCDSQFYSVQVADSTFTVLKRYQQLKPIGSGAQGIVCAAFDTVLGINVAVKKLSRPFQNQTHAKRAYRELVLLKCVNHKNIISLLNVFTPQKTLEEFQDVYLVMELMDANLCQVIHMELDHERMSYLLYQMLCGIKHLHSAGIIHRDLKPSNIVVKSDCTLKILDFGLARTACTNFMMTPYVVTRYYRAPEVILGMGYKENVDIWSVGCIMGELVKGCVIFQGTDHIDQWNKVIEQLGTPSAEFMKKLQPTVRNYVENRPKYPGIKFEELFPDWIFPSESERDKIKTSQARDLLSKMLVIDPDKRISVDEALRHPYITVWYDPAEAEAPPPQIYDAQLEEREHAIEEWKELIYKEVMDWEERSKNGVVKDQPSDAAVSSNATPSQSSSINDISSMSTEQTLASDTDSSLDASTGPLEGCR

[4] = biological target: Mitogen-activated protein kinase 10 (Homo sapiens) (UniProt P53779); assay: Inhibition of JNK3 at 25 uM by TR-FRET assay
[5] = biological target: Mitogen-activated protein kinase 14 (Homo sapiens) (UniProt Q16539); assay: Inhibition of MAPK14 at 25 uM by direct TR-FRET assay
Sequence of Mitogen-activated protein kinase 14 (Homo sapiens) (Q16539 whole entry): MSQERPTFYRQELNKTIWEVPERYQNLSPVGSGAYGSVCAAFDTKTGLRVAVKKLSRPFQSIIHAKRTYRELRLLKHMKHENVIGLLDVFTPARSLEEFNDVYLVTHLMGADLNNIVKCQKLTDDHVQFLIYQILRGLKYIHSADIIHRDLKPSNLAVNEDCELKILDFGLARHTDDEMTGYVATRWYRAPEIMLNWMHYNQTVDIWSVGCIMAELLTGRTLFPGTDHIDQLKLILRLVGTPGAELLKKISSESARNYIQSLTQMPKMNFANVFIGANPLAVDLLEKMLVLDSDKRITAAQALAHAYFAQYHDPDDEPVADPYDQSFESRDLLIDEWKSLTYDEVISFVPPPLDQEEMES

[6] = biological target: Mitogen-activated protein kinase 3 (Homo sapiens) (UniProt P27361); assay: Inhibition of MAPK3 at 25 uM by TR-FRET assay
Sequence of Mitogen-activated protein kinase 3 (Homo sapiens) (P27361 whole entry): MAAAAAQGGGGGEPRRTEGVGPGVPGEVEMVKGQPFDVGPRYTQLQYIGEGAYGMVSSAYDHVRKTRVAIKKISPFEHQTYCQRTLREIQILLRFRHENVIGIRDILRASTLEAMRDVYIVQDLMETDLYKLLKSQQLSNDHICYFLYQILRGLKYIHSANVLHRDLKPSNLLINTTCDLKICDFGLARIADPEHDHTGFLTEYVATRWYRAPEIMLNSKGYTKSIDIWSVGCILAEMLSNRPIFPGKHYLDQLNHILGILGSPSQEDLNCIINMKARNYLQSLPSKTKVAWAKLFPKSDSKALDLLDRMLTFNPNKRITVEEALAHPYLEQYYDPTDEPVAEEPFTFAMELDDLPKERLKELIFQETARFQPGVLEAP

[7] = biological target: Mitogen-activated protein kinase 1 (Homo sapiens) (UniProt P28482); assay: Inhibition of MAPK1 at 25 uM by TR-FRET assay
[8] = biological target: RAC-alpha serine/threonine-protein kinase (Homo sapiens) (UniProt P31749); assay: Inhibition of AKT1 at 25 uM by TR-FRET assay
[9] = biological target: 5'-AMP-activated protein kinase catalytic subunit alpha-1 (Homo sapiens) (UniProt Q13131); assay: Inhibition of AMPK A1 at 25 uM by TR-FRET assay
Sequence of 5'-AMP-activated protein kinase catalytic subunit alpha-1 (Homo sapiens) (Q13131 whole entry, looked up): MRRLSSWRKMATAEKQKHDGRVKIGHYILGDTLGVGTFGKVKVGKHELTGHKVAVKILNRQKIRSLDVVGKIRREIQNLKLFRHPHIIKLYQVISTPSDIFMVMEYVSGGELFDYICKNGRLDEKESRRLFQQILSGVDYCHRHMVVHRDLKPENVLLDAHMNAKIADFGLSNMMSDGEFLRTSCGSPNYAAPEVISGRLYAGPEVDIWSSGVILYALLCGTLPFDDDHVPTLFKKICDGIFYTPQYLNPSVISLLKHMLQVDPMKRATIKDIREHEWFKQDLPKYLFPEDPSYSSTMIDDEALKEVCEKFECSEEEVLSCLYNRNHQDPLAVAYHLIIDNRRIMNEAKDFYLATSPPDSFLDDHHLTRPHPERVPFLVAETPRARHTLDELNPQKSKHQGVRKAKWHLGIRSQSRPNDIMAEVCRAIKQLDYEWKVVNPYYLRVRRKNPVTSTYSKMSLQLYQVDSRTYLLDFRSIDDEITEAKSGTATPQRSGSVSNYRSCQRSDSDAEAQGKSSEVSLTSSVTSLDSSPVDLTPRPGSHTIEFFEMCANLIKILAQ

[10] = biological target: Aurora kinase A (Homo sapiens) (UniProt O14965); assay: Inhibition of AURK A at 25 uM by TR-FRET assay
Sequence of Aurora kinase A (Homo sapiens) (O14965 whole entry): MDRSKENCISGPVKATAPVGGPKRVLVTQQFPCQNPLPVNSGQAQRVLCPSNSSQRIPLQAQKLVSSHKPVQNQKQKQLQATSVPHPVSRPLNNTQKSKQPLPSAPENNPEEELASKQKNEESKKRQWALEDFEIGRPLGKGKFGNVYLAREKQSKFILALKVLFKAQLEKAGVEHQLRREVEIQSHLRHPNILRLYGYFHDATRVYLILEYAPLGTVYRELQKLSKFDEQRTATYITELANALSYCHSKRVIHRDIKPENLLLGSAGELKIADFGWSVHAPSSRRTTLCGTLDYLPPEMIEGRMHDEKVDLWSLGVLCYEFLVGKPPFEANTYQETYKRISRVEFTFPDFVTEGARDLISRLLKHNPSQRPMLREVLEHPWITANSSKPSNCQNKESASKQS

[11] = biological target: Serine/threonine-protein kinase B-raf (Homo sapiens) (UniProt P15056); assay: Inhibition of BRAF at 25 uM by TR-FRET assay
[12] = biological target: Calcium/calmodulin-dependent protein kinase type 1 (Homo sapiens) (UniProt Q14012); assay: Inhibition of CAMK1 at 25 uM by TR-FRET assay
[13] = biological target: Cyclin-dependent kinase 1 (Homo sapiens) (UniProt P06493); assay: Inhibition of CDK1 at 25 uM by TR-FRET assay
[14] = biological target: Serine/threonine-protein kinase Chk1 (Homo sapiens) (UniProt O14757); assay: Inhibition of CHEK1 at 25 uM by TR-FRET assay
[15] = biological target: Inhibitor of nuclear factor kappa-B kinase subunit alpha (Homo sapiens) (UniProt O15111); assay: Inhibition of CHUK at 25 uM by TR-FRET assay
[16] = biological target: Serine/threonine-protein kinase mTOR (Homo sapiens) (UniProt P42345); assay: Inhibition of FRAP1 at 25 uM by TR-FRET assay
[17] = biological target: Glycogen synthase kinase-3 alpha (Homo sapiens) (UniProt P49840); assay: Inhibition of GSK3alpha at 25 uM by TR-FRET assay
Sequence of Glycogen synthase kinase-3 alpha (Homo sapiens) (P49840 2-483 limits assumed): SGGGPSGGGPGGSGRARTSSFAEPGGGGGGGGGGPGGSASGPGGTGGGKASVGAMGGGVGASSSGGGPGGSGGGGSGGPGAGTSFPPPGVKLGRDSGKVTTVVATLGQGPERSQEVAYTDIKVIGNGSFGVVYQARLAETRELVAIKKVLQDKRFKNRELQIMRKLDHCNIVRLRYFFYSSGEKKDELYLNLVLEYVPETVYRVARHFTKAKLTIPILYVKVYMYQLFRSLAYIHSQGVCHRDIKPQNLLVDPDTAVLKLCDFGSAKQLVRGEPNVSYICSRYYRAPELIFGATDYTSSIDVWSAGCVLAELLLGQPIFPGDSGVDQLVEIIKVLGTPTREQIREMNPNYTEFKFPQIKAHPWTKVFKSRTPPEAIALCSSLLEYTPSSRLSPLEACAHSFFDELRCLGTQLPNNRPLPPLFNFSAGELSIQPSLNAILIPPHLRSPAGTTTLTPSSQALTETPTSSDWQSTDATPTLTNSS

[18] = biological target: Dual specificity mitogen-activated protein kinase kinase 1 (Homo sapiens) (UniProt Q02750); assay: Inhibition of MAK2K1 at 25 uM by TR-FRET assay
[19] = biological target: Mitogen-activated protein kinase kinase kinase 9 (Homo sapiens) (UniProt P80192); assay: Inhibition of MAPK3K9 at 25 uM by TR-FRET assay
[20] = biological target: Mitogen-activated protein kinase 14 (Homo sapiens) (UniProt Q16539); assay: Inhibition of MAPK14 at 25 uM by TR-FRET assay
[21] = biological target: Serine/threonine-protein kinase Nek1 (Homo sapiens) (UniProt Q96PY6); assay: Inhibition of NEK1 at 25 uM by TR-FRET assay
Sequence of Serine/threonine-protein kinase Nek1 (Homo sapiens) (Q96PY6 whole entry): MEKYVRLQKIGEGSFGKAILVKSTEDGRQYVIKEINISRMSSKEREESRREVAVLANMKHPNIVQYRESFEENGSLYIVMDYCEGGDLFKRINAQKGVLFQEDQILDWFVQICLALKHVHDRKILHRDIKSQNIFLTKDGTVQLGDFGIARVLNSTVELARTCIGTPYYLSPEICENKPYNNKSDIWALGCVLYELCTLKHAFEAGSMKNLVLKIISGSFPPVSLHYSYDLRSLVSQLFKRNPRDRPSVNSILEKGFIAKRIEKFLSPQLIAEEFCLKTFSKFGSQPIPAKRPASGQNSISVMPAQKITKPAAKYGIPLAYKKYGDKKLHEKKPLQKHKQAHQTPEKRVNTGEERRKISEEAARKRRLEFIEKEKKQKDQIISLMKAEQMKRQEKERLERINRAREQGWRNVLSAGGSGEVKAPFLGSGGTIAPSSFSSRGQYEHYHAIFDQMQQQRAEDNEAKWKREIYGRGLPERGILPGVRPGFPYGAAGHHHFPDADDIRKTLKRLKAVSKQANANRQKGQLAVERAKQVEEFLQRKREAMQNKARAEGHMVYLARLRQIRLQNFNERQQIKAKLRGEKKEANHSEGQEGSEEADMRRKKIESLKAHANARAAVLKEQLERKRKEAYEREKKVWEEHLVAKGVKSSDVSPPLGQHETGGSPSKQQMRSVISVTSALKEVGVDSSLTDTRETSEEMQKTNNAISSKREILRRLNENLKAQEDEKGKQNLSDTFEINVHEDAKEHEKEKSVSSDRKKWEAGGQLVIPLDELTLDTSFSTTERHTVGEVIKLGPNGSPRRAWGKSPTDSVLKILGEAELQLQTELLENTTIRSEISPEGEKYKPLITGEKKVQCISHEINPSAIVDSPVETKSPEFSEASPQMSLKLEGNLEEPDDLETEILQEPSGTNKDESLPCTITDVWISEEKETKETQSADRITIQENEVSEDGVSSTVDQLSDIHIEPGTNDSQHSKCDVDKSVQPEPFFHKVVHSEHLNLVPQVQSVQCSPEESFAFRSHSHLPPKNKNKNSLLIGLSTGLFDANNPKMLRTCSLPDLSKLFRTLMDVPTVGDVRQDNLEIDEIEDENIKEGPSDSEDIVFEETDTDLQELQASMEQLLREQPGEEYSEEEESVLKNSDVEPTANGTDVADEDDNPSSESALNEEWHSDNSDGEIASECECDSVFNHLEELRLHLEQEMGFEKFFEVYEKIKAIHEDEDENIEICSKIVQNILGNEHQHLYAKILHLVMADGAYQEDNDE

[22] = biological target: 3-phosphoinositide-dependent protein kinase 1 (Homo sapiens) (UniProt O15530); assay: Inhibition of PDK1 at 25 uM by direct TR-FRET assay
[23] = biological target: Phosphatidylinositol 4,5-bisphosphate 3-kinase catalytic subunit alpha isoform (Homo sapiens) (UniProt P42336); assay: Inhibition of PI3Kalpha at 25 uM by TR-FRET assay
[24] = biological target: Serine/threonine-protein kinase pim-1 (Homo sapiens) (UniProt P11309); assay: Inhibition of PIM1 at 25 uM by TR-FRET assay
[25] = biological target: Protein kinase C alpha type (Homo sapiens) (UniProt P17252); assay: Inhibition of PRKCA at 25 uM by TR-FRET assay
[26] = biological target: Rho-associated protein kinase 1 (Homo sapiens) (UniProt Q13464); assay: Inhibition of ROCK1 at 25 uM by TR-FRET assay
[27] = biological target: Sphingosine kinase 1 (Homo sapiens) (UniProt Q9NYA1); assay: Inhibition of SPHK1 at 25 uM by TR-FRET assay
[28] = biological target: Mitogen-activated protein kinase kinase kinase kinase 2 (Homo sapiens) (UniProt Q12851); assay: Inhibition of MAP4K2 at 25 uM by TR-FRET assay
[29] = biological target: T2, Mitogen-activated protein kinase 9; assay: Binding affinity to JNK2
Target sequence in this assay (P45984 whole entry): as the sequence (P45984 whole entry, looked up) above

[30] = biological target: T1, Mitogen-activated protein kinase 8; settings: 25 uM
Description: Inhibition of JNK1 at 25 uM by TR-FRET assay

T1 sequence (P45983 whole entry): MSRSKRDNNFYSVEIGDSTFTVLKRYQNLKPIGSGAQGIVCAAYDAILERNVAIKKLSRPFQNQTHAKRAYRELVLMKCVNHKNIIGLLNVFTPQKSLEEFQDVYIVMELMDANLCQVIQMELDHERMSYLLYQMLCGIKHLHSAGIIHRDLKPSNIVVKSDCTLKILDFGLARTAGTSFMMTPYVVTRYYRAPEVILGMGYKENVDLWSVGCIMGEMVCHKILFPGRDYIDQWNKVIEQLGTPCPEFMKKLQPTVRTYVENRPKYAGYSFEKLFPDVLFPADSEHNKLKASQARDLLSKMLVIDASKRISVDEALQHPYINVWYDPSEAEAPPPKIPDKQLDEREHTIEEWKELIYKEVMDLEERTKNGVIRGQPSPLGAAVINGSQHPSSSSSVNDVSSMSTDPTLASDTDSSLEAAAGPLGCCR

COc1cccc(CC(=O)Nc2sccc2C(N)=O)c1
IC50 [1]: 2.6 µM

CC(C)c1ccc(CC(=O)Nc2sccc2C(N)=O)cc1
IC50 [1]: > 25 µM

NC(=O)c1ccsc1NC(=O)Cc1c(F)cccc1F
IC50 [1]: 7.4 µM

NC(=O)c1ccsc1NC(=O)Cc1cccnc1
IC50 [1]: 8.1 µM

NC(=O)c1ccsc1NC(=O)Cc1ccc2ccccc2c1
IC50 [1]: > 25 µM

N#Cc1ccc(CC(=O)Nc2sccc2C(N)=O)cc1
IC50 [1]: 3.4 µM

COC(=O)c1ccsc1NC(=O)Cc1cccc2ccccc12
IC50 [1]: > 100 µM

NC(=O)c1ccsc1NC(=O)Cc1ccc(F)c(F)c1
IC50 [1]: 10.2 µM

NC(=O)c1ccsc1NC(=O)Cc1cccc([N+](=O)[O-])c1
IC50 [1]: > 25 µM

Cc1ccccc1CC(=O)Nc1sccc1C(N)=O
IC50 [1]: 6 µM

NC(=O)c1ccsc1NC(=O)Cc1cccc(Br)c1
IC50 [1]: 1.8 µM | t1/2 (Liver microsomes): 24 min | Stability (Plasma): Stable

NC(=O)c1ccsc1NC(=O)Cc1ccc2c(c1)CCC2
IC50 [1]: 2.5 µM

NC(=O)c1ccsc1NC(=O)Cc1csc2nc(-c3cccs3)cn12
IC50 [1]: 2.5 µM

CCOc1ccc(CC(=O)Nc2sccc2C(N)=O)cc1
IC50 [1]: 1.9 µM

NC(=O)c1ccsc1NC(=O)CN1CCOCC1
IC50 [1]: > 50 µM

Cc1cc(C(N)=O)c(NC(=O)Cc2cccc3ccccc23)s1
IC50 [1]: > 25 µM

NC(=O)c1ccsc1NC(=O)Cc1cccc(F)c1
IC50 [1]: 9.4 µM

NC(=O)c1ccsc1NC(=O)Cc1csc(-c2ccccc2)n1
IC50 [1]: > 25 µM

COc1ccccc1CC(=O)Nc1sccc1C(N)=O
IC50 [1]: 11.9 µM

N#Cc1cccc(CC(=O)Nc2sccc2C(N)=O)c1
IC50 [1]: 20.9 µM

NC(=O)c1ccsc1NC(=O)Cc1ccc(Cl)cc1
IC50 [1]: 18.7 µM

NC(=O)c1ccsc1NC(=O)Cc1c(F)cccc1Cl
IC50 [1]: 12.5 µM

NC(=O)c1ccsc1NC(=O)Cc1ccc(F)cc1F
IC50 [1]: 9.7 µM

NC(=O)c1ccsc1NC(=O)CN1CCN(C(=O)C2CC2)CC1
IC50 [1]: 83.5 µM

NC(=O)c1ccsc1NC(=O)Cc1ccc2ccc3cccc4ccc1c2c34
IC50 [1]: > 50 µM

NC(=O)c1ccsc1NC(=O)Cc1cc(F)cc(F)c1
IC50 [1]: 8.2 µM

NC(=O)c1ccsc1NC(=O)Cc1ccccc1Br
IC50 [1]: 2.9 µM

NC(=O)c1ccc(NC(=O)Cc2cccc3ccccc23)s1
IC50 [1]: > 100 µM

NC(=O)c1ccsc1NC(=O)Cc1csc2ccccc12
IC50 [1]: 1.3 µM | IC50 [2]: 4.62 µM | inhibition [3]: 72% | inhibition [4]: 18% | inhibition [5]: 2% | inhibition [6]: 3% | inhibition [7]: 4% | inhibition [8]: 5% | inhibition [9]: 0% | inhibition [10]: 0% | inhibition [11]: 2% | inhibition [12]: 2% | inhibition [13]: 3% | inhibition [14]: 0% | inhibition [15]: 0% | inhibition [16]: 0% | inhibition [17]: 16% | inhibition [18]: 0% | inhibition [19]: 0% | inhibition [20]: 11% | inhibition [21]: 0% | inhibition [22]: 0% | inhibition [23]: 4% | inhibition [24]: 0% | inhibition [25]: 0% | inhibition [26]: 0% | inhibition [27]: 1% | inhibition [28]: 1% | Kd [29]: 0.64 µM | Stability (Plasma): Stable | inhibition [30]: 79%

NC(=O)c1ccsc1NC(=O)Cc1ccccc1I
IC50 [1]: 3.4 µM

NC(=O)c1ccsc1NC(=O)Cc1cc(F)ccc1F
IC50 [1]: 5.8 µM

NC(=O)c1ccsc1NC(=O)Cc1ccccc1
IC50 [1]: 3.6 µM

NC(=O)c1ccsc1NC(=O)Cc1ccccc1Cl
IC50 [1]: 1.4 µM | t1/2 (Liver microsomes): 27 min | Stability (Plasma): Stable

O=C(Cc1cccc2ccccc12)Nc1sccc1C(=O)O
IC50 [1]: > 100 µM

COc1ccc(CC(=O)Nc2sccc2C(N)=O)cc1
IC50 [1]: 5.7 µM

NC(=O)c1ccsc1NC(=O)c1ccccc1
IC50 [1]: 5.9 µM

Source: ChEMBL document CHEMBL1764959, “Design, synthesis, and structure-activity relationship studies of thiophene-3-carboxamide derivatives as dual inhibitors of the c-Jun N-terminal kinase” (Bioorg Med Chem, 2011)
